Where two headings read alike, the source gives them in different places.
How the values were obtained:
CYP2C9 = CYP2C9 (Homo sapiens, UniProt P11712); conditions: background statement; cited from earlier work
MUC1-C [1] = test: Immunoblot of MUC1-C in growth factor-stimulated MCF-10A cells; assay type: cell-based, Human; conditions: for HRG-induced increase in MUC1-C abundance: MCF-10A cells + HRG, indicated concentrations; for EGF- and HRG-induced MUC1-C translation: growth factor stimulation (summary in discussion)
Experimental: (§1) Human MCF-10A mammary epithelial cells were grown in mammary epithelial growth medium (MEGM, Lonza). Human MCF-7 and MDA-MB-468 breast cancer cells were cultured in Dulbecco's modified Eagle's medium with 10% heat-inactivated fetal bovine serum (FBS), 100 U/ml penicillin, 100 μg/ml streptomycin and 2 mM L-glutamine. Human BT-549 cells were maintained in RPMI-1640 medium (ATCC) with 10% FBS and 0.023 IU/ml insulin. Cells were treated with EGF (Sigma), heregulin beta 1 (HRG; Neomarkers), cycloheximide (CHX, Calbiochem), U0126 (Calbiochem), LY294002 (Caymam Chemical Company), BEZ-235 (Selleckchem) and rapamycin Cell Signaling Technology). In certain experiments, MCF-10A cells were serum-starved overnight, and inhibitors were added 2.5 h prior to EGF or HRG treatment.
(§2) Lysates from subconfluent cells were immunoblotted with anti-MUC1-C(AbS; Neomarkers), anti-β-actin (Sigma), anti-p-AKT, anti-AKT, anti-p-ERK1/2, anti-ERK1/2, anti-p-S6K1, anti-S6K1, anti-PCDC4, anti-eIF4E, eIF4A (Cell Signaling Technology) and anti-EGFR (Santa Cruz Technology) Immune complexes were detected with horseradish peroxidase-conjugated secondary antibodies and enhanced chemiluminescence (Amersham Biosciences). Intensity of certain signals was determined by densitometric scanning.

[2] = cited from earlier work
[3] = test system: mitogen-activated protein kinase kinase (MEK); conditions: background statement; cited from earlier work
cyclin D1, MYC and MCL1 = conditions: literature; cited from earlier work
MUC1-C [4] = test: Immunoblot of MUC1-C in MDA-MB-468 breast cancer cells; assay type: cell-based, Human; conditions: MDA-MB-468 cells, 10 and 100 nM
Experimental: as §1, §2

MUC1-C [5] = test: Immunoblot of MUC1-C in MCF-7 breast cancer cells; assay type: cell-based, Human; conditions: MCF-7 cells; for MUC1-C abundance: 100 nM
Experimental: as §1, §2

cancer cells [6] = conditions: literature; cited from earlier work
cancer cells [7] = conditions: literature, preclinical studies, cited from earlier work
PDCD4 = test: Immunoblot of PDCD4 in MCF-10A cells; assay type: cell-based, Human; conditions: 100 nM silvestrol
Experimental: as §1, §2

β-actin = β-actin abundance in growth factor-stimulated MCF-10A cells; assay type: cell-based, Human
Experimental: as §2

eIF4A RNA helicase = conditions: literature; cited from earlier work
MCF-10A cells = test: EGF-stimulated MCF-10A cell growth, viable cell number by trypan blue exclusion; assay type: cell-based, Human; conditions: 100 nM, 24 h with EGF, reseeded, counted at 48 h
Excerpt: FIGS. 6A-D. MUC1-C translation is inhibited by CR-1-31-B in MCF-10A cells. (FIG. 6A) Structures of the indicated compounds.

MUC1-C [8] = test: Immunoblot of MUC1-C in BT-549 breast cancer cells; assay type: cell-based, Human; conditions: BT-549 cells, 100 nM, data not shown
Experimental: as §1, §2

MUC1 gene promoter = test: MUC1 promoter luciferase assay in MCF-10A cells; assay type: cell-based, Human; conditions: pMUC1-Luc, EGF 100 ng/ml 5 h
Experimental: Control pGL3 or pGL3-MUC1-promoter constructs were transfected with the Renilla plasmid into cells in the presence of Lipofectamine. At 24 h after transfection, cells were serum-starved overnight, and then treated with EGF (100 ng/ml) for 5 h. Luciferase reporter activity was measured using the Promega Dual Glo kit.

MUC1 mRNA = MUC1 mRNA by qRT-PCR in MCF-10A cells; assay type: cell-based, Human; conditions: EGF stimulation
Experimental: Total RNA was isolated from cells using an RNeasy Mini kit (Qiagen). cDNAs were synthesized with 0.3-1 μg RNA using the first-strand cDNA synthesis kit (Invitrogen). The SYBR green qPCR assay kit (Applied Biosystems) was used with 5 μl of 20-fold diluted cDNA from each sample, and the samples were amplified with the ABI Prism 7300 machine (Applied Biosystems).

[9] = MCF-10A cells + EGF, CHX 10 ng/ml, U0126 10 μM, LY294002 50 μM, BEZ235 250 or 500 nM, rapamycin 100 nM, silvestrol, CR-1-31-B, CR-1-30-B indicated concentrations 24 h

CYP2C9, sequence (P11712 whole entry): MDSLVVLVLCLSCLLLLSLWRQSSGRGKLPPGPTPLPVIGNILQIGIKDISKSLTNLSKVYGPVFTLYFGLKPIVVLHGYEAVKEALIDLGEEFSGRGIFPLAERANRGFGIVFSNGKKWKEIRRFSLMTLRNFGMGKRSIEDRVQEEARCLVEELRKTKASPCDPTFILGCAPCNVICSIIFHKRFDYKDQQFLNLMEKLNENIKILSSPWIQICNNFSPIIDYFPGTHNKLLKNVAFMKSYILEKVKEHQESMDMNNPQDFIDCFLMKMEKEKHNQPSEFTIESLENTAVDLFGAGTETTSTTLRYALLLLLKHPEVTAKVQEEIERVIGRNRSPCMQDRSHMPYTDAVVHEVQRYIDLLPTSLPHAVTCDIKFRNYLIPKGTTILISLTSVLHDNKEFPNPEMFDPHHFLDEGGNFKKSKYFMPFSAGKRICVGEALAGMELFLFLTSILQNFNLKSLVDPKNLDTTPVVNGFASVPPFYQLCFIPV

O=c1cc(-c2ccc(O)cc2)oc2cc(O)cc(O)c12 [Apigenin, 4′,5,7-trihydroxyflavone]
inhibition of CYP2C9 (CYP2C9): potent inhibitor

Cn1c(=O)n(-c2ccc(C(C)(C)C#N)cc2)c2c3cc(-c4cnc5ccccc5c4)ccc3ncc21 [BEZ235]
EGF-induced increase in MUC1-C abundance (MUC1-C [1]; [9]): blocked

O=c1c(O)c(-c2ccc(O)cc2)oc2cc(O)cc(O)c12 [Kaempferol]
solubility in water [2]: slightly soluble

COc1cccc(-c2cc(=O)c3ccccc3o2)c1N [PD98059, 2-(2′-amino-3′-methoxyphenyl)-oxanaphthalen-4-one]
inhibition of MEK [3]: potent inhibitor

N#CC(=C(/N)Sc1ccccc1N)/C(C#N)=C(\N)Sc1ccccc1N [U0126]
EGF-induced increase in MUC1-C abundance (MUC1-C [1]): not ERK1/2, blocked

C[C@@H]1C[C@@H]([C@H](O)CC2CC(=O)NC(=O)C2)C(=O)[C@@H](C)C1 [cycloheximide]
EGF-induced increase in MUC1-C abundance (MUC1-C [1]; [9]): blocked

COC(=O)[C@H]1[C@@H](O)[C@@]2(O)c3c(OC)cc(O[C@@H]4O[C@@H]([C@H](O)CO)CO[C@H]4OC)cc3O[C@@]2(c2ccc(OC)cc2)[C@@H]1c1ccccc1 [silvestrol]
production of cyclin D1, MYC and MCL1 (cyclin D1, MYC and MCL1): decreases | MUC1-C abundance (MUC1-C [4]): clearly detectable | MUC1-C levels (MUC1-C [5]; 10 nM): limited effect | MUC1-C abundance (MUC1-C [5]): more pronounced decrease | activity against cancer cells growing in vitro (cancer cells [6]): active | anti-tumor activity in animal models (cancer cells [7]): promising anti-tumor activity | toxicity in animal models (cancer cells [7]): little toxicity | anti-tumor activity in animal models (cancer cells [7]; listed as Silvestrol): active | PDCD4 abundance (PDCD4): marked decrease | EGF-induced increase in MUC1-C abundance (MUC1-C [1]; [9]): blocked | HRG-induced increase in MUC1-C abundance (MUC1-C [1]; 24 h): dose-dependent inhibitory effects | EGF- and HRG-induced MUC1-C translation (MUC1-C [1]; MCF-10A cells): substantially blocked | abundance of β-actin (β-actin): little effect | activity against eIF4A RNA helicase (eIF4A RNA helicase): potent inhibitor

CR-1-31-B
MUC1-C abundance (MUC1-C [4]): decreases | MUC1-C abundance (MUC1-C [5]): downregulation | growth of MCF-10A cells in response to EGF (MCF-10A cells): attenuated | EGF-induced increase in MUC1-C abundance (MUC1-C [1]; [9]): dose-dependent decrease | HRG-induced increase in MUC1-C abundance (MUC1-C [1]; 24 h): blocked | EGF- and HRG-induced MUC1-C translation (MUC1-C [1]; MCF-10A cells): similarly blocks | MUC1-C expression (MUC1-C [8]): decreases

EGF: growth factor (Sigma) stimulating EGFR
activation of the MUC1 gene promoter (MUC1 gene promoter): no significant effect | effect of growth factor stimulation on MUC1-C levels (MUC1-C [5]; EGF 100 ng/ml, HRG data not shown): no apparent effect | increase in MUC1-C expression compared to baseline levels (MUC1-C [1]; MCF-10A cells, growth factor stimulation (EGF 100 ng/ml, HRG 10 ng/ml), 24 h): 65 fold | MUC1 mRNA levels (MUC1 mRNA): no apparent effect

Source: US20150087598A1, “TREATING MUC1-EXPRESSING CANCERS WITH HELICASE INHIBITORS” (DANA-FARBER CANCER INSTITUTE, INC., priority 2012, published 2015)
